In patent publication US11241406B2, “Compositions and methods for acutley raising nitric oxide levels” (Nature's Sunshine Products, Inc., priority 2015, dated 2022):

Assays:
Myeloperoxidase (MPO) = biological target: T1, Myeloperoxidase (MPO) (Homo sapiens, UniProt P05164); assay: Myeloperoxidase Inhibitor Screening Assay (chlorination, hypochlorous acid production); format: biochemical; conditions: MPO inhibition; parenthetic values are 95% confidence interval; read-out: Observed IC50 (converted)
T1 sequence (P05164 49-745): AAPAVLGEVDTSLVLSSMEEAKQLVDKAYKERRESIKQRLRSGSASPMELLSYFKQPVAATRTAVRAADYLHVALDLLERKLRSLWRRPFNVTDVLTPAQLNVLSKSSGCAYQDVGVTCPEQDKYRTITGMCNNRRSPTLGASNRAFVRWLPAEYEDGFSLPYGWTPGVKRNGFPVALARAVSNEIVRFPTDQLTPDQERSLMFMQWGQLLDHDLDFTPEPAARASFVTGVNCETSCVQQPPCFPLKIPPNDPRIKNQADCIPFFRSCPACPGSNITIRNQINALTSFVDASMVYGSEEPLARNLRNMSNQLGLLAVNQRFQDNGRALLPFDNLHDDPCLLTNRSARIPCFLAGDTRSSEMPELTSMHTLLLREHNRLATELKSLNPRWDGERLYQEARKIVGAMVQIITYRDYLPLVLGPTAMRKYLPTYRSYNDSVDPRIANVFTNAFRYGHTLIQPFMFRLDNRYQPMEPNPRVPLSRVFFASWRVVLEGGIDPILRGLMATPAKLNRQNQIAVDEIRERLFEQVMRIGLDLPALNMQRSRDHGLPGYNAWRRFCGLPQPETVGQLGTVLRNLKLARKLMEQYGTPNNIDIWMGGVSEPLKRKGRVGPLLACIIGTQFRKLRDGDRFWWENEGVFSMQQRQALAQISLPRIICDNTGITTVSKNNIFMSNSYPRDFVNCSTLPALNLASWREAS
Protocol: Formulations 1 and 2, as described in Table 2 above, were tested for their synergistic activity. Additional samples of F1 and F2 were prepared at an initial concentration of 100 mg/mL in an acetone:water (1:1) solution, sonicated in an ice bath for 60 min with vortexing every 10 min, and centrifuged at 3000 rpm at ambient temperature for 5 min. The supernatant liquid was transferred to fresh tubes and centrifuged again at 13,300 rpm at ambient temperature for 10 min. This final supernatant fraction was transferred to fresh tubes and stored at −80° C. until assayed.
The acetone used in this example was obtained through Fisher Chemical Co (Pittsburgh, Pa.) and was the highest purity available. […]
The chlorination assay utilizes the non-fluorescent 2-[6-(4-aminophenoxy)-3-oxo-3H-xanthen-9-yl]-benzoic acid (APF), which is selectively cleaved by hypochlorite to yield the highly fluorescent compound fluorescein. Fluorescein fluorescence was analyzed with an excitation wavelength of 480-495 nm and an emission wavelength of 515-525 nm using a Cytation5 microplate fluorescence reader (Bio Tek Instruments, Winooski, Vt.).
The median inhibitory concentration (IC50) for the inhibition of MPO activity was calculated using CalcuSyn (BIOSOFT, Ferguson, Mo.). […]
Synergy of test components was then quantified using the combination index (CI) parameter. […]

[1] = cited from earlier work
[2] = system: NO biomarker NO2 in saliva; assay: Salivary NO biomarker (NO2) test strips after dosing of the formulations; format: in vivo, human; conditions: pharmacodynamic studies in this laboratory
Protocol: Over three days, subjects, with normal plasma concentrations of ADMA, were instructed to consume the 10 g of either F1 or F2 with 500 mL of water subsequent to developing the first, pre-dose NO strip. At post-dosing times 30, 60 and 90 minutes, NO strips were again developed for all subjects. One subject was given a 2× dose (20 g) of both formulations over the experimental period. The salivary NO strips, which detect salivary NO2, were nitric Oxide Test Strips (Berkeley Test, Berkeley, Calif.). Color development of NO strips was quantitated using densitometry. Means and 95% confidence intervals were computed using Excel [Microsoft, Redman, Wash.].
The assay of nitrite in saliva and nitrate in Test Formulation 3 (F3) was conducted as described in Example 1. Color development of NO strips was quantitated as described in Example 1. Means and 95% confidence intervals were computed as described in Example 1.
During the morning period, subjects (n=5), with normal plasma concentrations of ADMA, were instructed to consume 5 mL of the F3 with 500 mL of water subsequent to developing the first, pre-dose NO strip. At post-dosing times 30, 60 and 90 minutes, NO strips were again developed for all subjects.

SMILES: N=C(N)NCCC[C@H](N)C(=O)O [L-Arginine]
- IC50 (Myeloperoxidase (MPO)): 46.4 µM

SMILES: NC(=O)NCCC[C@H](N)C(=O)O [L-Citrulline]
- IC50 (Myeloperoxidase (MPO)): 103 µM

SMILES: O=[N+]([O-])O [NO3]
- bioavailability ([1]; dietary NO3): 100%
- half-life in plasma ([1]; orally consumed NO3): about 5 hours
- time to peak plasma concentration ([1]; orally consumed NO3): about 1 hour
- NO3 content that does not produce a detectable increase in NO strip color development [2]: below 12.5 mg NO3/dose
